Data on 4 compounds can be found in US11612661B2 (priority 2019, dated 2023).

The structures appear in SMILES notation. Several values for one entry are separate records, joined by “and”; a condition that tells them apart may be missing. Equal entries are not always repeated. Bridge positions count the residues as written; N and C are the ends. Square brackets hold non-standard residues; d marks the D form. Triazole bridges read from a SMILES are 1,4-linked. Peptide text beside a SMILES is read from it. Orn(N3) = [N-]=[N+]=NCCC[C@H](N)C(=O)O; Cit = NC(=O)NCCC[C@H](N)C(=O)O; Pra = C#CC[C@H](N)C(=O)O A value given as a limit tells only on which side of the number the result lay.

One data set has as its target rat α9α10 nAChR (Rattus norvegicus, UniProt P43144+Q9JLB5). In words: cell-based. The following applies: for IC50: α9α10 nAChR IC50 (nM) Rat. Type of data set: cell-based.
The next data set addresses human α9α10 nAChR (Homo sapiens, UniProt Q9GZZ6+Q9UGM1). In words: cell-based. The format is cell-based.
The next data set addresses α7 nAChR (Homo sapiens, UniProt P36544). The conditions noted are these: read-out: Partial inhibition of the α7 nAChR.
Data set [1] has as its system oxaliplatin-induced peripheral neuropathy. Set-up: species or system Sprague Dawley rats. The conditions noted are these: in vivo.
In a further data set the test system is spared nerve injury. Set-up: species or system rats. The following applies: rat, in vivo, 0.5 mg/kg.
Data set [2] has as its system 88 receptors, transporters, enzymes and kinases.
For data set [3] the following is noted: 24 h.
A short description of a further data set: in vivo. The conditions noted are these: male, Sprague Dawley, rat, sc, 1 mg/kg.
The next data set relates to α9α10 nAChR. The conditions noted are these: cited from earlier work.
For data set [4] the following is noted: rat, in vivo, 1 mg/kg, 1 h.

human α9α10 nAChR, sequence (Q9UGM1 26-479 limits assumed): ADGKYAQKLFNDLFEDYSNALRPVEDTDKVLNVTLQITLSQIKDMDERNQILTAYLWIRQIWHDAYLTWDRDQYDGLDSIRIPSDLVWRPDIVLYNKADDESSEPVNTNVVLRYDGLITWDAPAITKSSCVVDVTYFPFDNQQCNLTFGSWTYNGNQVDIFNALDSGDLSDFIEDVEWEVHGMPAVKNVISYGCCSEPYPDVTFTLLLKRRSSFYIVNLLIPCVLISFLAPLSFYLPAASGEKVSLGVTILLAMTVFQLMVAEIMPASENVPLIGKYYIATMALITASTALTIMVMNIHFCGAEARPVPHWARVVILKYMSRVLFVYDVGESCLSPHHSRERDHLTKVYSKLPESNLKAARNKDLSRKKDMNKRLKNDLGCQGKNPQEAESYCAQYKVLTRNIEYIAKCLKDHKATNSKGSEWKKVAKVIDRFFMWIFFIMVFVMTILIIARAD
human α9α10 nAChR, sequence (Q9GZZ6 25-450 limits assumed): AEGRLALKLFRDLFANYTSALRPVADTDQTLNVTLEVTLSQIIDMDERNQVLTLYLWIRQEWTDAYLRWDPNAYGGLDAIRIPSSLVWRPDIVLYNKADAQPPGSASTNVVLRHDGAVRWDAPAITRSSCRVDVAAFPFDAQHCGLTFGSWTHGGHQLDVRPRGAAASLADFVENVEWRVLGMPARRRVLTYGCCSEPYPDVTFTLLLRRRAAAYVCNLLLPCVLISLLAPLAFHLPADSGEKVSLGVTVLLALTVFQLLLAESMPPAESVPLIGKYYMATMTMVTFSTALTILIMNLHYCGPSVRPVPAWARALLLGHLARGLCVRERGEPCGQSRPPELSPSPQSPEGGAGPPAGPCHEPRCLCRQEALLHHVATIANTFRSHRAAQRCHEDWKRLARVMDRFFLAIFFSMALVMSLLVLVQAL
rat α9α10 nAChR, sequence (P43144 26-479 limits assumed): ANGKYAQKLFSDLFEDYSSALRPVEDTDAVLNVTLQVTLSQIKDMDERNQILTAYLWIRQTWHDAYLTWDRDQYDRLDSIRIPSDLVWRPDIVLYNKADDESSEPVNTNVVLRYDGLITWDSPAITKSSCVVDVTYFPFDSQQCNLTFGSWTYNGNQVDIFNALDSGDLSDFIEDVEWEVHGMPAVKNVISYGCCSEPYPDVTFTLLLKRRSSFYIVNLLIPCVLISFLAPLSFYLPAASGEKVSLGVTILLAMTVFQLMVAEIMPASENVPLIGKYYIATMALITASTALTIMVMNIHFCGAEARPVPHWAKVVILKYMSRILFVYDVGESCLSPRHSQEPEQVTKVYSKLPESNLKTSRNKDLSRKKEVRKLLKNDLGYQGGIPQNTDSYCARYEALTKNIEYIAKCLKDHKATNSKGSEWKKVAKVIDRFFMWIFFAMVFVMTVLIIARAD
rat α9α10 nAChR, sequence (Q9JLB5 25-447 limits assumed): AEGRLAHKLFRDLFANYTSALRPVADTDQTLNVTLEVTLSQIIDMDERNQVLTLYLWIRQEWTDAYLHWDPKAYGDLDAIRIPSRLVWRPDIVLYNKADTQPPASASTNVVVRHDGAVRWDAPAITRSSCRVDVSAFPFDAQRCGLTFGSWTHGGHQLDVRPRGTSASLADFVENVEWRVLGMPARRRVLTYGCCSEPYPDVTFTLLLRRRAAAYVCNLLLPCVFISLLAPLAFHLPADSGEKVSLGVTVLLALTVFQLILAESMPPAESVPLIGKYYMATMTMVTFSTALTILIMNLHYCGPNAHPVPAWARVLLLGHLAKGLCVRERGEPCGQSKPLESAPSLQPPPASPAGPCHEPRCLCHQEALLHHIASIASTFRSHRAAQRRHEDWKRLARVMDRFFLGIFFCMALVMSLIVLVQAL
α7 nAChR, sequence (P36544 23-502 limits assumed): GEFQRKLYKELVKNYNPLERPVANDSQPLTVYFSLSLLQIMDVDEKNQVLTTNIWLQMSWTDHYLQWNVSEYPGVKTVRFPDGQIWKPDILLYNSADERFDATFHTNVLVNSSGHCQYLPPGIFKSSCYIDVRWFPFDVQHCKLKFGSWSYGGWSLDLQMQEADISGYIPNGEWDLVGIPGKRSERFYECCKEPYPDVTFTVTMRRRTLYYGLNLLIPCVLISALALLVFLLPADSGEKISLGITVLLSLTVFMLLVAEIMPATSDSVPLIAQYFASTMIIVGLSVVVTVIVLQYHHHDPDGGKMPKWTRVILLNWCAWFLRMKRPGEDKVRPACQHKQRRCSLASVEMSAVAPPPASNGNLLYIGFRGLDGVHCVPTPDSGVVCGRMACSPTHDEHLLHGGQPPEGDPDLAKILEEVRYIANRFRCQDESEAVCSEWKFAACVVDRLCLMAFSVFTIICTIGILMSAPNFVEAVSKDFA

Regarding `C[C@@H](O)[C@@H]1NC(=O)[C@@H]2Cc3cn(nn3)CCC[C@@H](C(=O)N[C@@H](Cc3ccc(O)cc3)C(N)=O)NC(=O)[C@H](CCC(N)=O)NC(=O)[C@H](Cc3c[nH]c4ccccc34)NC(=O)[C@H](CCCNC(N)=O)NC(=O)[C@H](CSSC[C@H](NC(=O)CN)C(=O)N2)NC(=O)[C@H](CCCNC(=N)N)NC(=O)[C@@H]2CCCN2C(=O)[C@H](CC(=O)O)NC1=O` [Ia′, L-tyrosinamide, glycyl-L-cysteinyl-L-alanyl-L-threonyl-L-α-aspartyl-L-prolyl-L-arginyl-L-cysteinyl-N5-(aminocarbonyl)-L-ornithyl-L-tryptophyl-L-glutaminyl-L-norvalyl-cyclic (2→8)-disulfide-cyclic 3^3,12^5-(1H-1,2,3-triazole-4,1-diyl)] (H-GC[Pra]TDPRC[Cit]WQ[Orn(N3)]Y-NH2; disulfide 2-8; triazole 3-12), the concentration for half-maximal inhibition (IC50) (usually the concentration that inhibits the measured activity by half) at rat α9α10 nAChR is 12.6 nM and 7.7 nM; at human α9α10 nAChR, 26 ± 4 nM. At α7 nAChR, the inhibition (commonly the share of the control response that was lost under treatment) at 10 µM was 52%. Further, the “Duration of significant reduction in mechanical hyperalgesia compared to vehicle” value is on record as “up to 24 h” in data set [1] (rat, 0.5 mg/kg) and “up to 24 h” in the data set with spared nerve injury. Besides, the “Mechanical hyperalgesia versus vehicle (in words)” value in data set [1] (rat, sc, 0.5 mg/kg) is listed as “statistically significant improvements in mechanical hyperalgesia”; in the data set with spared nerve injury (sc), “statistically significant improvement in mechanical hyperalgesia”. Also, the “Off-target effects in panel of 88 receptors, transporters, enzymes and kinases” value in data set [2] is “no off-target effects”.

`C[C@@H](O)[C@@H]1NC(=O)[C@@H]2Cc3cn(nn3)CCC[C@@H](C(=O)N[C@@H](Cc3ccc(O)cc3)C(=O)O)NC(=O)[C@H](CCC(N)=O)NC(=O)[C@H](Cc3c[nH]c4ccccc34)NC(=O)[C@H](CCCNC(N)=O)NC(=O)[C@H](CSSC[C@H](NC(=O)CN)C(=O)N2)NC(=O)[C@H](CCCNC(=N)N)NC(=O)[C@@H]2CCCN2C(=O)[C@H](CC(=O)O)NC1=O` [Ia, L-tyrosine, glycyl-L-cysteinyl-L-alanyl-L-threonyl-L-α-aspartyl-L-prolyl-L-arginyl-L-cysteinyl-N5-(aminocarbonyl)-L-ornithyl-L-tryptophyl-L-glutaminyl-L-norvalyl-cyclic (2→8) disulfide-cyclic 3^3,12^5-(1H-1,2,3-triazole-4,1-diyl)] (H-GC[Pra]TDPRC[Cit]WQ[Orn(N3)]Y-OH; disulfide 2-8; triazole 3-12) returned an IC50 against rat α9α10 nAChR of 14.3 ± 1.8 nM. Moreover, on human α9α10 nAChR, the 50% inhibitory concentration (IC50) is 0.7 ± 0.03 nM. Further, in [1], the “PD (Rat CIPN) Duration of PD effect” value lay in the range of 4 to 24 h and the “PD (Rat CIPN) Required dose to reach max efficacy” value was found to be 0.5 mg/kg. Also, in [1] (rat, 0.5 mg/kg), the “Duration of significant reduction in mechanical hyperalgesia compared to vehicle” value was “up to 4 h”. Further, in [3], the “Disulfide rearrangement / stability in plasma and serum (in words)” value is “single isolated peak on reverse phase HPLC in rat plasma at 0 h, 8 h and 24 h”. For the same compound, in the data set “in vivo”, the AUC (commonly the area under the concentration-time curve, a measure of exposure) is 981 ng·h/mL; the AUC(0-t) (usually exposure summed from dosing to a finite time, without extrapolation to infinity) turned out to be 981 ng·h/mL; the maximum concentration (Cmax) (in general, the maximum level reached in the sampled fluid or tissue) stood at 648 ng/mL; the Tmax (usually the time at which the peak concentration occurs) was found to be 15 min. Also, the half-life (as a rule, the time in which the quantity being followed falls by half) in the data set “in vivo” is 30 min.

On to `N=C(N)NCCC[C@H](NC(=O)[C@@H]1CSSC[C@@H]2NC(=O)[C@@H](NC(=O)CN)CSSC[C@H](NC(=O)[C@H](CCCNC(=N)N)NC(=O)[C@@H]3CCCN3C(=O)[C@H](CC(=O)O)NC(=O)[C@H](CO)NC2=O)C(=O)N[C@@H](CCCNC(=N)N)C(=O)N[C@@H](Cc2ccc(O)cc2)C(=O)N[C@@H](CCCNC(=N)N)C(=O)N1)C(=O)O` [RgIA], for which, in the data set with α9α10 nAChR, the “Lower affinity for the human than the rat α9α10 nAChR” value is “approximately 300 fold”.

As for `C[C@@H](O)[C@@H]1NC(=O)[C@@H]2CSSC[C@@H](C(=O)N[C@@H](Cc3ccc(O)cc3)C(N)=O)NC(=O)[C@H](CCC(N)=O)NC(=O)[C@H](Cc3ccc(O)c(I)c3)NC(=O)[C@H](CCCNC(N)=O)NC(=O)[C@H](CSSC[C@H](NC(=O)CN)C(=O)N2)NC(=O)[C@H](CCCNC(=N)N)NC(=O)[C@@H]2CCCN2C(=O)[C@H](CC(=O)O)NC1=O` [CSP-4-NH2, reference compound], at rat α9α10 nAChR, the “Activity on the rat α9α10 nAChR (in words)” value was “active” and the IC50 was 0.4 ± 0.2 nM. Further, on human α9α10 nAChR, the “Activity on the human α9α10 nAChR (in words)” value was “active”; the “Block of ACh-evoked currents” value is listed as > 99%; the IC50 is 3.5 ± 1.5 nM; the “Percent of 100 μM acetylcholine-induced current remaining in the presence of compound, Mean ± SEM” value is recorded as 0.4 ± 0.11%. Moreover, the “Recovered peptide from blood remaining in the native form” value in data set [4] was 40-50%.
